# Measurements published in patent US20250319046A1, “PHENYLALANINE-BASED LAT1 INHIBITORS AND USES THEREOF” (MAXYMUNE THERAPEUTICS, INC., priority 2024, published 2025).
# Like-named read-outs stand apart in the source and are kept apart here.
# Key:
# [1] = tested on: LN229 cells; experiment: Amino acid starvation assay: antiproliferation assay with LN229 cells (CellTiter-Glo); assay type: cell-based; settings: Homo sapiens, LN-229, 144 h, F12K medium, six days
# Procedure: Amino Acid Starvation Assay
# The ability of compounds to inhibit amino acid uptake interact with LAT1 was measured using an antiproliferation assay with LN229 cells (ATCC®). LN229 cells were cultured in DMEM medium (VWR International). Two (2)×10^3 (2,000) cells/well were plated in clear bottom 96-well plates (CellBIND®, Corning 3340) and were allowed to attach overnight. The next day, cells were washed once with PBS buffer (VWR International). F12K medium ([…]) (VWR International) with increasing concentrations of test compounds in at least triplicate was added. Cells were incubated for six (6) days at 37° C. and 5% CO2. At end of the assay, 140 μL of supernatant medium were removed from each well and 60 μL of CellTiter-Glo® (Promega) were added. Cell lysis was induced by placing the plates for three (3) minutes on an orbital shaker. Plates were incubated for 10 min at 25° C. to stabilize the luminesce signal. Luminescence was recorded using an EnSpire® Multimode Plate Reader (Perkin Elmer). Background (luminescence from wells incubated in the presence of 100 µM of commercial LAT1 inhibitor JPH203 (MedKoo) was subtracted, and data were normalized to the DMSO control (proliferation in the absence of any competitor). Data were fitted to the Michaelis-Menten equation using GraphPad Prism (Version 8.2.0).
# [2] = target: LAT1 (Homo sapiens (Human), UniProt Q01650); experiment: LAT1 uptake inhibition assay: [3H]-gabapentin competition uptake in LN229 cells; assay type: cell-based; settings: [3H]-gabapentin uptake
# How it was run: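 LN229 cells grown 3 days, then incubated 15 min in PBS with 50,000 cpm [3H]-gabapentin plus increasing compound concentrations (≥triplicate); cell-retained radioactivity counted by scintillation. Background (10 mM unlabelled gabapentin) subtracted, data normalized to DMSO control and fitted to Michaelis-Menten equation.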
# [3] = Table 1, read-out: Anti-proliferation LC50 (μM ± SE)
# [4] = read-out: LC50, the concentration of test compound at which the proliferation was inhibited by 50%
# [5] = 15 min incubation in PBS, read-out: IC50, the concentration of test compound at which the [3H]-GP uptake was inhibited by 50%
# [6] = Table 1, read-out: LAT1 inhibition IC50 (nM ± SE)
# Chain of LAT1 (Q01650 whole entry): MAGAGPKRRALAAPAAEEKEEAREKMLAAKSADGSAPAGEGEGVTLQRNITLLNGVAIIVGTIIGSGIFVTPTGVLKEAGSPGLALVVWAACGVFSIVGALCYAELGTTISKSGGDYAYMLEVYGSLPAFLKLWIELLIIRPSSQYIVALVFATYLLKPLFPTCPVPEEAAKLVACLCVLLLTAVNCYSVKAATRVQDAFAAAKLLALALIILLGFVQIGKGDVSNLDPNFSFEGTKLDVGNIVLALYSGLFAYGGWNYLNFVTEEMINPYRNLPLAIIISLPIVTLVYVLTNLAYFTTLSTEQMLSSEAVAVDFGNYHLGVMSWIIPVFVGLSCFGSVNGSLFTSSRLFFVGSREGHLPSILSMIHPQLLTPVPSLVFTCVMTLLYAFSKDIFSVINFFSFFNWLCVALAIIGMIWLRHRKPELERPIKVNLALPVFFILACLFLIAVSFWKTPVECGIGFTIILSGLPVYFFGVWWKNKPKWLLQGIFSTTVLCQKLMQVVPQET
# Chain of LAT1 (P08195 whole entry partner): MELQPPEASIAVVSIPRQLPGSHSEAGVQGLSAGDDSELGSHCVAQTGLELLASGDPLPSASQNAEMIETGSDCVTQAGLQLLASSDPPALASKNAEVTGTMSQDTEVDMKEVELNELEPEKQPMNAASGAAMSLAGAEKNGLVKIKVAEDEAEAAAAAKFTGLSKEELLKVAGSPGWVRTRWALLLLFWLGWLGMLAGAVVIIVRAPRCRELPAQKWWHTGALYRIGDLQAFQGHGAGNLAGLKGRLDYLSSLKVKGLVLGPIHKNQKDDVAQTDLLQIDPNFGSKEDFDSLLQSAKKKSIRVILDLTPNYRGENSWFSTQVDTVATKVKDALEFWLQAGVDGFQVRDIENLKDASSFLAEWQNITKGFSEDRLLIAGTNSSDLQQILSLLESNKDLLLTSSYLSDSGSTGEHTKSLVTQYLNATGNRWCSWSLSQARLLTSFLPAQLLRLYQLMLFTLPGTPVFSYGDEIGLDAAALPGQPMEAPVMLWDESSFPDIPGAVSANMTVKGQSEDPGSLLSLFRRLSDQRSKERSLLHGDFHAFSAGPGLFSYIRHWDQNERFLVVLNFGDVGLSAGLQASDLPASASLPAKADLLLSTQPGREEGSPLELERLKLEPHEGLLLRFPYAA
Structure (SMILES),"IC50 [2, 5] [nM]","IC50 [2, 6] [nM]","CC50 [1, 3] [µM]","CC50 [1, 4] [µM]"
"N[C@@H](Cc1cccc(S(=O)(=O)Nc2ccc(Cl)cc2)c1)C(=O)O [Compound 79, (S)-2-Amino-3-(3-(N-(4-chlorophenyl)sulfamoyl)phenyl)propanoic Acid]",20 to 100,80 ± 10,100 ± 20,≥ 100
"CC(C)c1ccc(NS(=O)(=O)c2cccc3c(N(C)C)cccc23)cc1C[C@H](N)C(=O)O [Compound 21, (S)-2-Amino-3-(5-((5-(dimethylamino)naphthalene)-1-sulfonamido)-2-isopropylphenyl)propanoic Acid]",20 to 100,50 ± 10,49 ± 1,30 to 100
"Cc1ccc(S(=O)(=O)Nc2ccc(-c3ccccc3)cc2)cc1C[C@H](N)C(=O)O [Compound 40, (S)-3-(5-(N-([1,1′-Biphenyl]-4-yl)sulfamoyl)-2-methylphenyl)-2-aminopropanoic Acid]",20 to 100,25 ± 8,60 ± 20,30 to 100
"Cc1ccc(NS(=O)(=O)c2ccccc2)cc1C[C@H](N)C(=O)O [Compound 10, (S)-2-Amino-3-(2-methyl-5-(phenylsulfonamido)phenyl)propanoic Acid]",20 to 100,100 ± 40,70 ± 20,30 to 100
"Cc1ccc(S(=O)(=O)Nc2ccc(Cl)cc2)cc1C[C@H](N)C(=O)OC(C)(C)C [Compound 82, tert-Butyl (S)-2-amino-3-(5-(N-(4-chlorophenyl)sulfamoyl)-2-methylphenyl)propanoate]",20 to 100,–,–,≥ 100

# Further lines, with some results ahead:
"IC50 [2, 5] [nM]","IC50 [2, 6] [nM]",Structure (SMILES),"CC50 [1, 3] [µM]","CC50 [1, 4] [µM]"
≤ 20,10 ± 3,"COc1ccc(NS(=O)(=O)c2ccc(C)c(C[C@H](N)C(=O)O)c2)cc1 [Compound 44, (S)-2-Amino-3-(5-(N-(4-methoxyphenyl)sulfamoyl)-2-methylphenyl)propanoic Acid]",20 ± 6,< 30
≤ 20,20 ± 4,"Cc1ccc(S(=O)(=O)NCc2ccccc2)cc1C[C@H](N)C(=O)O [Compound 30, (S)-2-Amino-3-(5-(N-benzylsulfamoyl)-2-methylphenyl)propanoic Acid]",38 ± 2,30 to 100
